Experimental data: US20170313664A1, “NOVEL FORM OF PYRIMIDINE COMPOUND HAVING DIBENZYLAMINE STRUCTURE” (KOWA COMPANY, LTD., priority 2013, published 2017)

Test: Heat stability test (remaining percentage by HPLC peak area after preservation in a glass bottle)
Assay type: physicochemical
Settings: for Remaining percentage (%) of pyrimidine compound (1): HPLC area percentage, 242 nm
Procedure: A test compound was placed in a glass bottle, and it was then preserved for a predetermined period of time under temperature conditions of 80° C., 100° C., or 120° C. Thereafter, the remaining percentage (%) of the pyrimidine compound (1) in the test compound was measured.
The remaining percentage was obtained by measuring the rate of the pyrimidine compound (1) contained in the test compound according to high performance liquid chromatography and expressing the measured value as a peak area percentage. In the measurement according to high performance liquid chromatography, an ODS column was used as a column, and a mixture of two solvents, namely, a 0.1% TFA aqueous solution and a 0.1% TFA acetonitrile solution, was used as a solvent. The detection wavelength was set at 242 nm.
From the obtained area percentage of the pyrimidine compound (1), the remaining percentage was calculated according to the following calculation formula.
Remaining percentage (%)=Area percentage of pyrimidine compound (1) after preservation/area percentage of pyrimidine compound (1) before preservation×100
As test compounds, the crystal obtained in Example 1-3 (a crystal of the pyrimidine compound (1) hydrochloride) and a free form of the pyrimidine compound (1) were used.

[1] = After preservation at 80° C. for 72 hours
[2] = After preservation at 100° C. for 24 hours
[3] = After preservation at 120° C. for 16 hours

| Structure (SMILES) | Remaining percentage (%) of pyrimidine compound (1) [1] | Remaining percentage (%) of pyrimidine compound (1) [2] | Remaining percentage (%) of pyrimidine compound (1) [3] | Heat stability (overall assessment) (conclusion from the test results of Table 8 (80-120° C.)) |
| --- | --- | --- | --- | --- |
| CCN(C[C@H]1CC[C@H](CC(=O)O)CC1)c1ccc(C(F)(F)F)cc1CN(c1ncc(OCCS(C)(=O)=O)cn1)[C@@H](C)c1cc(C(F)(F)F)cc(C(F)(F)F)c1 [Free form of pyrimidine compound (1), (S)-trans-{4-[({2-[({1-[3,5-bis(trifluoromethyl)phenyl]ethyl}{5-[2-(methylsulfonyl)ethoxy]pyrimidin-2-yl}amino)methyl]-4-(trifluoromethyl)phenyl}(ethyl)amino)methyl]cyclohexyl}acetic acid] | 99.5% | 89.3% | 71.5% |  |
| CCN(C[C@H]1CC[C@H](CC(=O)O)CC1)c1ccc(C(F)(F)F)cc1CN(c1ncc(OCCS(C)(=O)=O)cn1)[C@@H](C)c1cc(C(F)(F)F)cc(C(F)(F)F)c1.Cl [(S)-trans-{4-[({2-[({1-[3,5-bis(trifluoromethyl)phenyl]ethyl}{5-[2-(methylsulfonyl)ethoxy]pyrimidin-2-yl}amino)methyl]-4-(trifluoromethyl)phenyl}(ethyl)amino)methyl]cyclohexyl}acetic acid monohydrochloride] | 100.0% | 100.0% | 99.5% | excellent heat stability |
